Data as given in the NIST ThermoML archive (doi:10.1016/j.jct.2008.01.008).

Tests used:
[1] = xn = mol fraction of the nth substance listed; conditions: 298.15 K, 101 kPa, Liquid; for viscosity: Capillary tube (Ostwald / Ubbelohde) method; for speed of sound: Sing-around technique in a fixed-path interferometer
[2] = 298.15 K, 101.33 kPa, Liquid; for viscosity: Capillary tube (Ostwald / Ubbelohde) method; for speed of sound: Sing-around technique in a fixed-path interferometer

COCC(C)OCC(C)OC (centres undefined) [2-methoxy-1-(2-methoxy-1-methylethoxy)propane] + CCCO
[1]
Conditions	mass density [kg/m3]	speed of sound [m/s]	viscosity [mPa·s]
x1 = 0.0008	–	–	1.955
x1 = 0.0061	–	–	1.928
x1 = 0.0186	–	–	1.866
x1 = 0.0409	–	–	1.775
x1 = 0.0653	815.198	1210.9	–
x1 = 0.0666	–	–	1.678
x1 = 0.0903	–	–	1.599
x1 = 0.1089	824.018	1212.8	–
x1 = 0.1309	–	–	1.494
x1 = 0.1451	830.582	1214	–
x1 = 0.1846	–	–	1.382
x1 = 0.2124	841.11	1215.2	–
x1 = 0.267	–	–	1.264
x1 = 0.2694	848.766	1216	–
x1 = 0.3041	852.935	1215.8	–
x1 = 0.3136	–	–	1.211
x1 = 0.3359	856.509	1215.6	–
x1 = 0.345	–	–	1.184
x1 = 0.3718	–	–	1.164
x1 = 0.3913	862.204	1215.6	–
x1 = 0.4516	–	–	1.112
x1 = 0.4561	868.154	1215.4	–
x1 = 0.502	872.013	1215.3	–
x1 = 0.5198	–	–	1.081
x1 = 0.5464	875.439	1214.6	–
x1 = 0.5625	–	–	1.066
x1 = 0.6111	–	–	1.05
x1 = 0.6139	880.179	1213.9	–
x1 = 0.6459	–	–	1.043
x1 = 0.6513	882.571	1213.2	–
x1 = 0.708	885.911	1212.5	–
x1 = 0.7346	–	–	1.021
x1 = 0.7572	888.492	1211.4	–
x1 = 0.7703	–	–	1.012
x1 = 0.8098	891.002	1210.3	–
x1 = 0.8317	–	–	1.005
x1 = 0.8457	892.536	1209.5	–
x1 = 0.8591	–	–	1.002
x1 = 0.9067	894.986	1207.9	–
x1 = 0.9511	–	–	0.9968
x1 = 0.9576	896.939	1206.4	–
x1 = 0.9746	897.584	1206.1	–
x1 = 0.9753	–	–	0.993
x1 = 0.9915	–	–	0.9927

CCCCCO [pentan-1-ol]
[2]
Conditions	mass density [kg/m3]	speed of sound [m/s]	viscosity [mPa·s]
–	811.001	1276	3.495

COCC(C)OCC(C)OC (centres undefined) [2-methoxy-1-(2-methoxy-1-methylethoxy)propane]
[2]
Conditions	mass density [kg/m3]	speed of sound [m/s]	viscosity [mPa·s]
–	898.566	1205	0.9926

CCCCCCCO [heptan-1-ol]
[2]
Conditions	mass density [kg/m3]	speed of sound [m/s]	viscosity [mPa·s]
–	818.851	1327.4	5.886

CCCO [propan-1-ol]
[2]
Conditions	mass density [kg/m3]	speed of sound [m/s]	viscosity [mPa·s]
–	799.666	1206.5	1.959

CO [methanol]
[2]
Conditions	mass density [kg/m3]	speed of sound [m/s]	viscosity [mPa·s]
–	786.548	1102.6	0.5444
